The results in this text go back to ChEMBL document CHEMBL1909046, “DrugMatrix in vitro pharmacology data”.

Assay [1] deals with Glycine receptor (Rattus norvegicus, UniProt P22771+P24524+P07727+P20781). The assay is classed as cell membranes, Wistar, Spinal cord, Membrane.
Assay [2] deals with T1, 5-hydroxytryptamine receptor 2C (Homo sapiens, UniProt P28335).
T1 sequence (P28335 whole entry): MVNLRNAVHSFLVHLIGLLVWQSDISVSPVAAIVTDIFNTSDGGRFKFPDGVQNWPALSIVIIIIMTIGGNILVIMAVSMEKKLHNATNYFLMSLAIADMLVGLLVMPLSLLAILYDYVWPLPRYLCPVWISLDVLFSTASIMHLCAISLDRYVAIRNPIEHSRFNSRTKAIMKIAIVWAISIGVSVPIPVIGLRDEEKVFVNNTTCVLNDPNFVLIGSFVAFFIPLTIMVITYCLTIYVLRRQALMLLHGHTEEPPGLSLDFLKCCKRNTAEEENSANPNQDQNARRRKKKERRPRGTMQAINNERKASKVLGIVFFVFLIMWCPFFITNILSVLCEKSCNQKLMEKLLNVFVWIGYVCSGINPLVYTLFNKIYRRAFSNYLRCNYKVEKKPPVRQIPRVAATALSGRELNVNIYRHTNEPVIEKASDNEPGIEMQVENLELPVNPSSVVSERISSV
Kind of assay: DRUGMATRIX: Serotonin (5-Hydroxytryptamine) 5-HT2C radioligand binding (ligand: [3H] Mesulergine). It counts as cell membranes, CHO-K1, Membrane. The settings on record: Not Active = under 50% inhibition at 10 µM.

The target in assay [3] is T2, C-C chemokine receptor type 4 (Homo sapiens, UniProt P51679). Note: in other assays of this panel Not Active means under 50% inhibition at 10 µM.
T2 sequence (P51679 whole entry): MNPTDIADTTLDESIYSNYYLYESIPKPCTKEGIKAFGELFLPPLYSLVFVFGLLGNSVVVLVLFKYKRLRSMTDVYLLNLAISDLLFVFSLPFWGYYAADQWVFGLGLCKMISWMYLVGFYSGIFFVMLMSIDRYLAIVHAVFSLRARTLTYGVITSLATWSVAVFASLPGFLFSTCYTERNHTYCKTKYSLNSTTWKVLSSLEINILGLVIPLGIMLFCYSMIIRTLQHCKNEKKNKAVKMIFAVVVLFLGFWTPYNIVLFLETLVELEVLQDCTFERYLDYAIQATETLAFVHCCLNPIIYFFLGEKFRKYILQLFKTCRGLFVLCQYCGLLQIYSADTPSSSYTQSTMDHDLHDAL
It counts as cell membranes, Membrane. The settings on record: chem-1.

Assay [4] concerns the target Receptor tyrosine-protein kinase erbB-2 (Homo sapiens, UniProt P04626). The experiment in a line: biochemical. It counts as cell-based, Insect cells. The settings on record: insect cells.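 Note: inhibition of HER2 kinase enzyme activity, measured with Poly(Glu:Tyr) as the phosphorylation substrate; in other assays of this panel Not Active means under 50% inhibition at 10 µM.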
Assay [5] concerns the target C-C chemokine receptor type 2 (Homo sapiens, UniProt P41597). It counts as cell membranes, CHO-K1, Membrane. Conditions: cho-k1. Note: in other assays of this panel Not Active means under 50% inhibition at 10 µM.
In assay [6] the target is Melanocortin receptor 4 (Homo sapiens, UniProt P32245). It counts as cell membranes, Membrane. Conditions: hek293. Note: in other assays of this panel Not Active means under 50% inhibition at 10 µM.
Melanocortin receptor 4, sequence (P32245 whole entry): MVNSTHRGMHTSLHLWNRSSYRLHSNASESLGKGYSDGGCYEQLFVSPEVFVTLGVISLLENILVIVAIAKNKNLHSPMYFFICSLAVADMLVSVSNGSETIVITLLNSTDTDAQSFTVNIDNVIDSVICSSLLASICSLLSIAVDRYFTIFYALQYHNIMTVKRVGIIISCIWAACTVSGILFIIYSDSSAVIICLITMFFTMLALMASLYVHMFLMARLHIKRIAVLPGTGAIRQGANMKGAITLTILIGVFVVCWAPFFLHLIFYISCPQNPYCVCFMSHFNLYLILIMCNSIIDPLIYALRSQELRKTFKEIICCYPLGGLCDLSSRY
The target in assay [7] is cGMP-specific 3',5'-cyclic phosphodiesterase (Homo sapiens, UniProt O76074). The experiment in a line: DRUGMATRIX: Phosphodiesterase PDE5 enzyme inhibition (substrate: [3H]cGMP + cGMP). Conditions: platelet; Not Active = under 50% inhibition at 10 µM. It counts as tissue-based.

C-C chemokine receptor type 2, sequence (P41597 whole entry): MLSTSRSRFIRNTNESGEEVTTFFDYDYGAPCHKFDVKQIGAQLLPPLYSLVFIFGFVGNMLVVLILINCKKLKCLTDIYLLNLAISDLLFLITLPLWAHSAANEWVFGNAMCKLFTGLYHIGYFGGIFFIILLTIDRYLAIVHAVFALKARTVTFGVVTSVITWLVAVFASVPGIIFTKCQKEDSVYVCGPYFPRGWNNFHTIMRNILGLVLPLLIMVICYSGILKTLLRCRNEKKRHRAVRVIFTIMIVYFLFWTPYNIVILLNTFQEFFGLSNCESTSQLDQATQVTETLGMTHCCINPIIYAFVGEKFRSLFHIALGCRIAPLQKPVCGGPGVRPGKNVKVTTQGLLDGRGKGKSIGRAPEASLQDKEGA
Receptor tyrosine-protein kinase erbB-2, sequence (P04626 whole entry): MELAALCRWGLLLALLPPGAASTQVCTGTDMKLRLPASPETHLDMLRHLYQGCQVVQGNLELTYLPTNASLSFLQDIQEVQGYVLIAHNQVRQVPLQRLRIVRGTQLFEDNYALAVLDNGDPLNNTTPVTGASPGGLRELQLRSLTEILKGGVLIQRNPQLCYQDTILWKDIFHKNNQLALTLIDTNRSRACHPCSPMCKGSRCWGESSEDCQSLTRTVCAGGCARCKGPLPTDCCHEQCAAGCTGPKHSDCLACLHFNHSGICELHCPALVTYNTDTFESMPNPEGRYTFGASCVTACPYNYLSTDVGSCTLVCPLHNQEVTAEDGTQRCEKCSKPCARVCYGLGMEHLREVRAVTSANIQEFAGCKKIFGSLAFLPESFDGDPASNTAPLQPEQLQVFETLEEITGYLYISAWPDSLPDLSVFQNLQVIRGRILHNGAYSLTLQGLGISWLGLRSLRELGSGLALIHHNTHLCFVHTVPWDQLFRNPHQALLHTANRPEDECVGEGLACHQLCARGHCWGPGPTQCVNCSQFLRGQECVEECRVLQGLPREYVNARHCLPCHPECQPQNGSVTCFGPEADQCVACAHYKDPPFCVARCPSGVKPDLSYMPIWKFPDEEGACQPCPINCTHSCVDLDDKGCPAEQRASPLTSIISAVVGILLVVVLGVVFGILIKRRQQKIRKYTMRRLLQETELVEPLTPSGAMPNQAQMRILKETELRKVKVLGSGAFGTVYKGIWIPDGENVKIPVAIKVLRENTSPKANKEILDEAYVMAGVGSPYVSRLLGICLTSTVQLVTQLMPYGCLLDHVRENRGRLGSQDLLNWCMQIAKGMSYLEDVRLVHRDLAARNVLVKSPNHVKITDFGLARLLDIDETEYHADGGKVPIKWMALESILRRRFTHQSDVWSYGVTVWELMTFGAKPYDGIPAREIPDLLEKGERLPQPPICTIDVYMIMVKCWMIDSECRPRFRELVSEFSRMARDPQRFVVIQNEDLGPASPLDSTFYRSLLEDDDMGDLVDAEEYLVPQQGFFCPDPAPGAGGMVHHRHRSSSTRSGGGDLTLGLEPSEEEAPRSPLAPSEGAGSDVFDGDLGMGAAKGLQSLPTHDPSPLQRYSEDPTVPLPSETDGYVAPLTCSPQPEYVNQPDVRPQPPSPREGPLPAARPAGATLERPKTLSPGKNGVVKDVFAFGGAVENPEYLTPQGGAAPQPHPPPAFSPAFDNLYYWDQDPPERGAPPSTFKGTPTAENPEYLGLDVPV

For `O=C(C1CCCCC1)N1CC(=O)N2CCc3ccccc3C2C1` (configuration not stated) [PRAZIQUANTEL], the IC50 entry in assay [1], in assay [2] (cho-k1), in assay [3], in assay [4], in assay [5] and in assay [6] was “Not Active” in each case. Also, in assay [7], the IC50 entry is “Not Active”.
`CCN(CC)CCOC(=O)c1ccc(N)cc1` [PROCAINE]: the IC50 result in assay [1], in assay [2] (cho-k1), in assay [3], in assay [4], in assay [5] and in assay [6] was “Not Active” each time. For the same compound, in assay [7], the IC50 entry is reported as “Not Active”.
With `CCCN(CCC)C(=O)C(CCC(=O)O)NC(=O)c1ccccc1` (configuration not stated) [PROGLUMIDE], the IC50 entry in assay [1], in assay [2] (cho-k1), in assay [3], in assay [4], in assay [5] and in assay [6] was “Not Active” each time. Further, the IC50 entry in assay [7] is “Not Active”.
For `NC(=O)c1cnccn1` [PYRAZINAMIDE], the IC50 result in assay [1], in assay [2] (cho-k1), in assay [3], in assay [4], in assay [5] and in assay [6] was “Not Active” throughout. In assay [7], the IC50 result is “Not Active”.
For `OC(CCN1CCCCC1)(c1ccccc1)C1CCCCC1` (configuration not stated) [TRIHEXYPHENIDYL], the IC50 result in assay [1], in assay [2] (cho-k1), in assay [3], in assay [4], in assay [5] and in assay [6] was “Not Active” in each case. The IC50 entry in assay [7] is “Not Active”.
For `Cc1cc2cc3c(C)cc(=O)oc3c(C)c2o1` [TRIOXSALEN], the IC50 result in assay [1] was “Not Active”; in assay [2] (read-out: IC50) it was 2360 nM; in assay [3], “Not Active”; in assay [4], “Not Active”; in assay [5] it was “Not Active”; in assay [6], “Not Active”. Besides, the IC50 entry in assay [7] is listed as “Not Active”. Besides, the Ki in assay [2] (read-out: Ki) came to 1230 nM.
`CCCC(CCC)C(=O)O` [VALPROIC ACID]: the IC50 result in assay [1], in assay [2] (cho-k1), in assay [3], in assay [4], in assay [5] and in assay [6] was “Not Active” throughout. Moreover, the IC50 entry in assay [7] is on record as “Not Active”.
Turning to `CCC1=C[C@@H]2CN(C1)Cc1c([nH]c3ccccc13)[C@@](C(=O)OC)(c1cc3c(cc1OC)N(C)[C@H]1[C@@](O)(C(=O)OC)[C@H](OC(C)=O)[C@]4(CC)C=CCN5CC[C@]31[C@@H]54)C2` [VINORELBINE], the IC50 result in assay [1], in assay [2] (cho-k1), in assay [3], in assay [4], in assay [5] and in assay [6] was “Not Active” throughout. For the same compound, the IC50 result in assay [7] is recorded as “Not Active”.

One may read the IC50 as the concentration needed to halve the response being measured. As usually defined, the Ki is a measure of affinity in units of concentration, obtained from inhibition or displacement.
